Test results from patent publication US20250099448A1, “HETEROCYCLIC COMPOUNDS” (Hoffmann-La Roche Inc., priority 2022, published 2025).

Molecular target: T1, MAGL protein (Homo sapiens, UniProt Q99685)
T1 sequence (Q99685 1-303): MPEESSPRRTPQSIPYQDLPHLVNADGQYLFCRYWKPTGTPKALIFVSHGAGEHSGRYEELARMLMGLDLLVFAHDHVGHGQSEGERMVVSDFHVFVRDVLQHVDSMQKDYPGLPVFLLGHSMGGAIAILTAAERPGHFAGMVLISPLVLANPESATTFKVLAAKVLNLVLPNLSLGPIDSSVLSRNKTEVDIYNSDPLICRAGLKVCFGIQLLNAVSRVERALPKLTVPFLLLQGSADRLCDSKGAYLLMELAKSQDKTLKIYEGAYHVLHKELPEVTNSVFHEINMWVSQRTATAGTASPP
Assay: 2-AG assay: MAGL inhibitory activity by hydrolysis of 2-arachidonoylglycerol to arachidonic acid, followed by mass spectrometry
Format: biochemical
Settings: 8 μM 2-arachidonoylglycerol, 15 min preincubation, 30 min reaction at RT, RapidFire MS readout
Summary of the method: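 Activity was measured by RapidFire SPE–triple-quad MS as the ratio of arachidonic acid to d8-arachidonic acid after 2-AG hydrolysis (8 μM substrate, 30 min, RT, acetonitrile quench). Compounds, tested from 12.5 μM down to […], were first preincubated 15 min with MAGL in TRIS/EDTA/Tween-20 buffer containing 2.5% DMSO.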

## CS(=O)(=O)c1ccc(OCC2CCN(C(=O)N3CC4(CC(c5n[nH]c(C6CC6)n5)C4)C3)CC2)cc1C(F)(F)F [Example 924, [6-(5-cyclopropyl-1H-1,2,4-triazol-3-yl)-2-azaspiro[3.3]heptan-2-yl]-[4-[[4-mesyl-3-(trifluoromethyl)phenoxy]methyl]piperidino]methanone]
  IC50: 49.2 nM

## Cc1cc([C@@H](C)C2CC3(C2)CN(C(=O)N2CC4(CC(c5nc(C6CC6)n[nH]5)C4)C2)C3)ncc1C(F)(F)F [compound 966]
  IC50: 0.14 nM

## O=C(N1CC(c2cnc(N3CC[C@@H](C(F)(F)F)C3)nc2)C1)N1CC2(CC(c3nc(C4CC4)n[nH]3)C2)C1 [compound 666]
  IC50: 2.2 nM

## Cc1c(CN2CC3(C2)CN(C(=O)N2CC4(CC(c5nc(C6CC6)n[nH]5)C4)C2)C3)cnn1CC(F)(F)F [compound 640]
  IC50: 43.7 nM

## O=C(N1CC(c2ccc(N3CC(C(F)(F)F)C3)cc2)C1)N1CC2(CC(c3nnc(C4(O)CC4)[nH]3)C2)C1 [compound 262]
  IC50: 1.96 nM

## O=C(N1CC2(CC(Cc3cn(CC(F)(F)F)nc3C(F)(F)F)C2)C1)N1CC2(CC(c3nc(C4CC4)n[nH]3)C2)C1 [compound 571]
  IC50: 0.55 nM

## O=C(N1CC2(CC(Cc3cc(C(F)(F)F)ccn3)C2)C1)N1CC2(CC(c3ncn[nH]3)C2)C1 [compound 985]
  IC50: 2990 nM

## O=C(N1CC2(CC(c3nnc(C4CC4)[nH]3)C2)C1)N1CC2(CN(Cc3ccc(C(F)(F)F)cn3)C2)C1 [compound 163]
  IC50: 4.11 nM

## O=C(N1CC2(CC(Cc3ccc(OC(F)(F)F)nc3)C2)C1)N1CC2(CC(c3nc(C4CC4)n[nH]3)C2)C1 [compound 501]
  IC50: 0.92 nM

## CS(=O)(=O)c1cc(Cl)ccc1CC1CC2(CCN(C(=O)N3CC4(CC(c5nnc(C6CC6)[nH]5)C4)C3)C2)C1 (stereo not drawn) [Example 892, [2-(4-chloro-2-mesyl-benzyl)-6-azaspiro[3.4]octan-6-yl]-[6-(5-cyclopropyl-4H-1,2,4-triazol-3-yl)-2-azaspiro[3.3]heptan-2-yl]methanone]
  IC50: 12.3 nM

## O=C(N1CC2(CC(Cc3nc(C(F)(F)F)no3)C2)C1)N1CC2(CC(c3nc(C4CC4)n[nH]3)C2)C1 [compound 683]
  IC50: 0.21 nM

## Cn1ncc(CN2CC3(C2)CN(C(=O)N2CC4(CC(c5nc(C6CC6)n[nH]5)C4)C2)C3)c1C(F)(F)F [compound 688]
  IC50: 8.96 nM

## O=C(N1CC(NCc2ccc(C(F)(F)F)c(F)c2)C1)N1CC2(CC(c3nnc(C4CC4)[nH]3)C2)C1 [compound 193]
  IC50: 45.5 nM

## O=C(N1CC2(CC(Cn3ccc(C(F)(F)F)cc3=O)C2)C1)N1CC2(CC(c3nc(C4CC4)n[nH]3)C2)C1 [compound 766]
  IC50: 2.83 nM

## CS(=O)(=O)c1ccccc1-c1ccc(C2CN(C(=O)N3CC4(CC(c5nc(C6CC6)n[nH]5)C4)C3)C2)cc1 [Example 516, [6-(3-cyclopropyl-1H-1,2,4-triazol-5-yl)-2-azaspiro[3.3]heptan-2-yl]-[3-[4-(2-mesylphenyl)phenyl]azetidin-1-yl]methanone]
  IC50: 0.17 nM

## O=C(N1CC2(CC(c3nc(C4CC4)n[nH]3)C2)C1)N1CC2(CN(Cc3cc(C(F)(F)F)[nH]n3)C2)C1 [compound 625]
  IC50: 8.75 nM

## Cn1ncc(C(F)(F)F)c1CC1CC2(C1)CN(C(=O)N1CC3(CC(c4nc(C5CC5)n[nH]4)C3)C1)C2 [compound 691]
  IC50: 0.16 nM

## CS(=O)(=O)C1(c2ccc(C3CN(C(=O)N4CC5(CC(c6nc(C7CC7)n[nH]6)C5)C4)C3)cc2)CC1 [compound 776]
  IC50: 5.9 nM

## O=C(N1CC(OCc2ccc(F)cc2Cl)C1)N1CC2(CC(c3nnc(C4CC4)[nH]3)C2)C1 [compound 320]
  IC50: 8.28 nM

## NC(=O)C1CC(F)(F)CCN1c1ccc(C2CN(C(=O)N3CC4(CC(c5nnc(C6CC6)[nH]5)C4)C3)C2)cc1 (stereo not drawn) [compound 385]
  IC50: 3.76 nM

## O=C(N1CC2(CC(Cn3cnc(C4(C(F)(F)F)CC4)c3)C2)C1)N1CC2(CC(c3nc(C4CC4)n[nH]3)C2)C1 [compound 860]
  IC50: 2.9 nM

## O=C(N1CC2(CC(c3nc(C4CC(F)(F)C4)n[nH]3)C2)C1)N1CC2(CN(Cc3sncc3C(F)(F)F)C2)C1 [compound 655]
  IC50: 557 nM

## O=C(N1CC2(CC(c3nc(C4CC4)n[nH]3)C2)C1)N1CC2(CN(Cc3ccc(S(=O)(=O)C(F)(F)F)cc3F)C2)C1 [compound 554]
  IC50: 0.56 nM

## O=C(N1CC(c2nc(CC3(C(F)(F)F)CC3)no2)C1)N1CC2(CC(c3nnc(C4CC4)[nH]3)C2)C1 [compound 245]
  IC50: 50.2 nM

## O=C(N1CC(C23CC(NCC4(C(F)(F)F)CC4)(C2)C3)C1)N1CC2(CC(c3nc(C4(F)CC4)n[nH]3)C2)C1 [compound 578]
  IC50: 0.51 nM

## COc1cc(Cl)ccc1CN(C)C1CN(C(=O)N2CC3(CC(c4nnc(C5CC5)[nH]4)C3)C2)C1 [Example 891, [3-[(4-chloro-2-methoxy-benzyl)-methyl-amino]azetidin-1-yl]-[6-(5-cyclopropyl-4H-1,2,4-triazol-3-yl)-2-azaspiro[3.3]heptan-2-yl]methanone]
  IC50: 34 nM

## O=C(N1CC2(CC(Cc3cnc(C(F)(F)F)cn3)C2)C1)N1CC2(CC(c3nc(C4(O)CC4)n[nH]3)C2)C1 [compound 4]
  IC50: 4.89 nM

## COc1cc(C(F)(F)F)ccc1COC1CN(C(=O)N2CC3(CC(c4nnc(C5CC5)[nH]4)C3)C2)C1 [compound 307]
  IC50: 0.44 nM

## Cn1ncc(OC2CC3(C2)CN(C(=O)N2CC4(CC(c5nc(C6CC6)n[nH]5)C4)C2)C3)c1C(F)(F)F [compound 592]
  IC50: 1.38 nM

## O=C(N1CC2(CC(c3ccc(S(=O)(=O)C(F)(F)F)cc3)C2)C1)N1CC2(CC(c3nnc(C4CC4)[nH]3)C2)C1 [compound 413]
  IC50: 0.34 nM

## O=C(N1CC2(CC(Cc3nc(C(F)(F)F)cs3)C2)C1)N1CC2(CC(c3nc(C4COC4)n[nH]3)C2)C1 [compound 783]
  IC50: 33.7 nM

## O=C(N1CC2(CC(Cc3ncc(Cl)cc3F)C2)C1)N1CC2(CC(c3nc(C4CC(F)(F)C4)n[nH]3)C2)C1 [compound 737]
  IC50: 12 nM

## O=C(N1CC(Oc2ccc(Cl)c(C3CC3)c2)C1)N1CC2(CC(c3nnc(C4(O)CC4)[nH]3)C2)C1 [compound 325]
  IC50: 14.7 nM

## O=C(N1CC(CN2CCC(F)(F)CC2)C1)N1CC2(CC(c3nnc(C4CC4)[nH]3)C2)C1 [compound 219]
  IC50: 923 nM

## CS(=O)(=O)c1cccc(CN2CCC3(CC2)CN(C(=O)N2CC4(CC(c5nnc(C6CC6)[nH]5)C4)C2)C3)c1 [compound 181]
  IC50: 36.2 nM

## CS(=O)(=O)c1cc(CC2CC3(C2)CN(C(=O)N2CC4(CC(c5nc(C6(O)CC6)n[nH]5)C4)C2)C3)cc(C(F)(F)F)c1 [compound 670]
  IC50: 1 nM

## O=C(N1CC2(CC(Cn3ccnc3C(F)(F)F)C2)C1)N1CC2(CC(c3nc(C4CC4)n[nH]3)C2)C1 [compound 453]
  IC50: 1.73 nM

## CS(=O)(=O)C1(c2ccc(C3CN(C(=O)N4CC5(CC(c6nc(C7(O)CC7)n[nH]6)C5)C4)C3)cc2)CC1 [compound 790]
  IC50: 9.68 nM

## O=C(N1CC2(CCC(Oc3ncc(C(F)(F)F)cn3)CC2)C1)N1CC2(CC(c3nnc(C4CC4)[nH]3)C2)C1 [compound 134]
  IC50: 1.89 nM

## O=C(N1CC2(CC(Cc3cnn(CC(F)(F)F)c3)C2)C1)N1CC2(CC(c3nc(C4(O)CC4)n[nH]3)C2)C1 [compound 765]
  IC50: 4.49 nM

## O=C(N1CC2(CCC(Nc3cnc(C(F)(F)F)cn3)CC2)C1)N1CC2(CC(c3nnc(C4CC4)[nH]3)C2)C1 [compound 351]
  IC50: 3.59 nM

## O=C(N1CC2(CCC(Cc3ccc(C(F)(F)F)cn3)C2)C1)N1CC2(CC(c3nnc(C4CC4)[nH]3)C2)C1 (stereo not drawn) [compound 50]
  IC50: 0.19 nM
